Values of other authors, collected in EP3663750B1, “SCAFFOLDED NUCLEIC ACID POLYMER PARTICLES AND METHODS OF MAKING AND USING” (Life Technologies Corporation, priority 2009, dated 2010).

details: Oil Soluble Azo Initiator Compounds; temperature at which the initiator has a half-life of 10h

Going from `CC(C)CC(C)(C#N)N=NC(C)(C#N)CC(C)C` (centres unmarked) to `CCC(C)(C#N)N=NC(C)(C#N)CC` (centres unmarked), the “10 hour half-life decomposition temperature” value rises from 51 °C to 67 °C.

Compared with `N#CC1(N=NC2(C#N)CCCCC2)CCCCC1`, `CC(C)(N=NC(C)(C)C(=O)NC1CCCCC1)C(=O)NC1CCCCC1` is higher in “10 hour half-life decomposition temperature” value: 88 °C for the first, 111 °C for the second.

Going from `C=CCNC(=O)C(C)(C)N=NC(C)(C)C(=O)NCC=C` to `CCCCNC(=O)C(C)(C)N=NC(C)(C)C(=O)NCCCC`, the “10 hour half-life decomposition temperature” value rises from 96 °C to 110 °C.

same assay, conditions: Water Soluble Azo Initiator Compounds; temperature at which the initiator has a half-life of 10h

First: CC(C)(N=NC(C)(C)C1=NCCN1CCO)C1=NCCN1CCO
Second: CC(C)(N=NC(C)(C)C(=N)N1CCCC1)C(=N)N1CCCC1
The “10 hour half-life decomposition temperature” value of the first is lower: 60 °C for the first, 67 °C for the second.

In the case of `CC(C)(N=NC(C)(C)C(=O)NCCO)C(=O)NCCO`, the “10 hour half-life decomposition temperature” value is given as 87 °C.

same assay, conditions: buffer

For `CC(C)(N=NC(C)(C)C1=NCCN1)C1=NCCN1` [drawing 1], the “10 hour half-life decomposition temperature” value is listed as 44 °C.
In the case of `CC(C)(N=NC(C)(C)C1=NCCN1)C1=NCCN1` [drawing 6], the “10 hour half-life decomposition temperature” value is given as 61 °C.
